The values that follow come from ChEMBL document CHEMBL3774368, “1,2,4-Triazolyl octahydropyrrolo[2,3-b]pyrroles: A new series of potent and selective dopamine D3 receptor antagonists” (Bioorg Med Chem, 2016).

Structures are written as SMILES. Calls of active or inactive are those of the source. The calls are words filed in the database; no cut-off is given here.

The species named for one data set is Homo sapiens. In words: Selectivity ratio of IC50 for human ERG to Ki for human dopamine D3 receptor.
Data set [1] deals with D(1A) dopamine receptor (Homo sapiens) (UniProt P21728). Kind of data set: Binding affinity to dopamine D1 receptor (unknown origin).
D(1A) dopamine receptor (Homo sapiens), sequence (P21728 whole entry): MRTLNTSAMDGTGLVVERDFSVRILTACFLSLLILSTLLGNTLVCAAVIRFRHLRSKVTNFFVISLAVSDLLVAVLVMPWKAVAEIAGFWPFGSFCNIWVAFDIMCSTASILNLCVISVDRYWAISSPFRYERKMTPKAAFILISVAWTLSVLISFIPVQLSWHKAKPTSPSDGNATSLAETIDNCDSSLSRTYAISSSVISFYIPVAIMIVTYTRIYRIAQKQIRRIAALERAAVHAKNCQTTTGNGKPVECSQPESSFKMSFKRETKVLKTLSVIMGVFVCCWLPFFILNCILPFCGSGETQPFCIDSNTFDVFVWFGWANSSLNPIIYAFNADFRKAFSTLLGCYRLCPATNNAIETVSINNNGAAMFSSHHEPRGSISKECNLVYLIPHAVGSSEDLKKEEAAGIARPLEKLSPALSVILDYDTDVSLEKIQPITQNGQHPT
The next data set addresses D(2) dopamine receptor (Homo sapiens, UniProt P14416). Kind of data set: Displacement of [3H]-spiperone from human dopamine D2 receptor expressed in CHO-K1 cell membranes after 120 mins by liquid scintillation counter method. Background: Displacement assays read how much labelled ligand stays bound in the presence of the test substance.
For data set [2], the target named is Voltage-gated inwardly rectifying potassium channel KCNH2 (Homo sapiens, UniProt Q12809). Kind of data set: Inhibition of human ERG tail current expressed in HEK293 cells after 5 mins by patch clamp assay. In general terms: Patch clamp records ionic current or voltage across a cell membrane.
Voltage-gated inwardly rectifying potassium channel KCNH2, sequence (Q12809 whole entry): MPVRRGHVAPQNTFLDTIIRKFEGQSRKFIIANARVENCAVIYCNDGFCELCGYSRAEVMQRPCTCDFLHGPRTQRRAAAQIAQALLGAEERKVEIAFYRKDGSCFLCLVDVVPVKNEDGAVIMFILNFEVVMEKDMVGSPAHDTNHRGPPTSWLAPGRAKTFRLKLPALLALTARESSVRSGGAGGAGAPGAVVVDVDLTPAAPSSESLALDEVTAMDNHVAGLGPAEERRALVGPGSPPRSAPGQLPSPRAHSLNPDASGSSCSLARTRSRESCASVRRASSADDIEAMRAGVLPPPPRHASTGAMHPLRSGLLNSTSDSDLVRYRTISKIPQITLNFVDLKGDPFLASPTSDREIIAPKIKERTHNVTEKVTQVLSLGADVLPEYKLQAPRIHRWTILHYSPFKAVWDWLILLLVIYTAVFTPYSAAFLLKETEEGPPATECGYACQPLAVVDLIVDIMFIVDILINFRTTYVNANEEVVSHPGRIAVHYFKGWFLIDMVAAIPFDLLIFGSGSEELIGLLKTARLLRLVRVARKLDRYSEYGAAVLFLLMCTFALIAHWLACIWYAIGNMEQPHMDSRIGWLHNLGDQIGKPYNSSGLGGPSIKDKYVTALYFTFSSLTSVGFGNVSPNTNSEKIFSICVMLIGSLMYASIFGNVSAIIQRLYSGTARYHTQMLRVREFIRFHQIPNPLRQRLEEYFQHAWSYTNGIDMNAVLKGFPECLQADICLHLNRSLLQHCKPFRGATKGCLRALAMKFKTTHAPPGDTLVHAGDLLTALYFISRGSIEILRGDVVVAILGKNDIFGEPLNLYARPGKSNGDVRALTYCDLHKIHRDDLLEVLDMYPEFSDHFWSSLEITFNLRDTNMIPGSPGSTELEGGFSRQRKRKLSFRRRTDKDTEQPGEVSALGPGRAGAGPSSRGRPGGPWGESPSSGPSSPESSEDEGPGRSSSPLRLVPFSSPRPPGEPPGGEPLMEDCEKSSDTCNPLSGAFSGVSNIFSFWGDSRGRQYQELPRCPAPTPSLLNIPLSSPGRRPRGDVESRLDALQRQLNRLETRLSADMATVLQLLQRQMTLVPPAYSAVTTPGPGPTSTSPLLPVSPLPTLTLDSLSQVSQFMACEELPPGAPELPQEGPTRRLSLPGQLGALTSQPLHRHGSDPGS
Another data set deals with D(3) dopamine receptor (Homo sapiens, UniProt P35462). In words: Displacement of [3H]-spiperone from human dopamine D3 receptor expressed in CHO-K1 cell membranes after 90 mins by liquid scintillation counter method.
D(3) dopamine receptor, sequence (P35462 whole entry): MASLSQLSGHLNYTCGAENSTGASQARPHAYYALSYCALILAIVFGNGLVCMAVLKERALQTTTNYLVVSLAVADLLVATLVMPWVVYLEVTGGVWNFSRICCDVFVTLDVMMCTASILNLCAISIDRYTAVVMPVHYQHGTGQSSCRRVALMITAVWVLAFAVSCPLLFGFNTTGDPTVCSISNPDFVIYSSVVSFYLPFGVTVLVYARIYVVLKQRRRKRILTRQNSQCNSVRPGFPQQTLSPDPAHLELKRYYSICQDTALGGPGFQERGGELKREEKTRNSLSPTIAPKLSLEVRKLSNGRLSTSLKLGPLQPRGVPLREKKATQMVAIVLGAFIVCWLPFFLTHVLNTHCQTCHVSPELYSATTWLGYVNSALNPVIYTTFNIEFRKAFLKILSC
Data set [3] is described as follows: in vitro. To be noted: rat, liver microsomes, CLH. Background: Liver microsomes are a subcellular fraction often used to study metabolism.
Data set [4] can be described thus: in vitro. To be noted: human, liver microsomes, CLH.
The nature of data set [5]: Permeability across apical to basolateral side in human Caco2 cells. To be noted: Caco-2.
A short description of data set [6]: Solubility of compound. It is filed as physicochemical.
The target of a further data set is Cytochrome P450 2C19 (Homo sapiens, UniProt P33261). In words: Inhibition of recombinant human CYP2C19 expressed in baculosomes preincubated for 10 mins followed by cofactor addition measured every minute for 10 mins using 3-butyryl-7-methoxycoumarin as substrate by CYPEX assay.
Cytochrome P450 2C19, sequence (P33261 whole entry): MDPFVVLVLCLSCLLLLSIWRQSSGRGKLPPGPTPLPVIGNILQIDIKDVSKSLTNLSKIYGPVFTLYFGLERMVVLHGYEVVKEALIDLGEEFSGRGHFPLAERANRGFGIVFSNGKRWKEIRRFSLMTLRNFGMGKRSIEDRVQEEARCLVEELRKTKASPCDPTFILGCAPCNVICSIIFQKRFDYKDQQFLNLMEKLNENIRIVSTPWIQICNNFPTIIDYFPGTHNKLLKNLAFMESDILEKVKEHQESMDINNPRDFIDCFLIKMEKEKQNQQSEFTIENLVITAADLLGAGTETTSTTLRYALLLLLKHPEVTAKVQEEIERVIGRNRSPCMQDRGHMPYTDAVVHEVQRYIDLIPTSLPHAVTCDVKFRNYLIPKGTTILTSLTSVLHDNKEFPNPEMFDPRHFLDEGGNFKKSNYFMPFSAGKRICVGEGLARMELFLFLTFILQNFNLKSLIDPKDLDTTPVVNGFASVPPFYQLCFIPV
Data set [7] has as its target T1, Cytochrome P450 3A4 (Homo sapiens, UniProt P08684). In words: Inhibition of recombinant human CYP3A4 expressed in baculosomes preincubated for 10 mins followed by cofactor addition measured every minute for 10 mins using diethoxyflourescein as substrate by CYPEX assay.
In data set [8] the target is T2, Muscarinic acetylcholine receptor M1 (Homo sapiens, UniProt P11229).
T2 sequence (P11229 whole entry): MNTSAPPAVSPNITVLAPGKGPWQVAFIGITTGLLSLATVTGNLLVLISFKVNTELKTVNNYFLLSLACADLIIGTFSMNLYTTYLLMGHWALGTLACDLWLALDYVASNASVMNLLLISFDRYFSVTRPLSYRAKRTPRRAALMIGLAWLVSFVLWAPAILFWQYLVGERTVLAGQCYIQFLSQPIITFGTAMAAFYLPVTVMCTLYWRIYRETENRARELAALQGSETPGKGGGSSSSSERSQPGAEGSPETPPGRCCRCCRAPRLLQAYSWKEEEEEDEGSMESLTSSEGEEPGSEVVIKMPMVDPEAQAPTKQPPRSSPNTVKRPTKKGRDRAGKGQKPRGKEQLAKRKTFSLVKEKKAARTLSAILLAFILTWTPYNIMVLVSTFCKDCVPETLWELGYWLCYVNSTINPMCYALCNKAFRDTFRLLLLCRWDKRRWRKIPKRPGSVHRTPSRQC
In words: Antagonist activity at recombinant human muscarinic M1 receptor expressed in CHO-K1 cells assessed as inhibition of acetylcholine induced calcium mobilization preincubated for 10 mins followed by acetylcholine addition measured after 1 hr by fluo-4 AM dye-based FLIPR assay. It counts as functional, cell-based.

The target in data set [9] is Muscarinic acetylcholine receptor M3 (Homo sapiens, UniProt P20309). Kind of data set: Antagonist activity at recombinant human muscarinic M3 receptor expressed in CHO-K1 cells assessed as inhibition of acetylcholine induced calcium mobilization preincubated for 10 mins followed by acetylcholine addition measured after 1 hr by fluo-4 AM dye-based FLIPR assay. It counts as functional, cell-based.
Muscarinic acetylcholine receptor M3, sequence (P20309 whole entry): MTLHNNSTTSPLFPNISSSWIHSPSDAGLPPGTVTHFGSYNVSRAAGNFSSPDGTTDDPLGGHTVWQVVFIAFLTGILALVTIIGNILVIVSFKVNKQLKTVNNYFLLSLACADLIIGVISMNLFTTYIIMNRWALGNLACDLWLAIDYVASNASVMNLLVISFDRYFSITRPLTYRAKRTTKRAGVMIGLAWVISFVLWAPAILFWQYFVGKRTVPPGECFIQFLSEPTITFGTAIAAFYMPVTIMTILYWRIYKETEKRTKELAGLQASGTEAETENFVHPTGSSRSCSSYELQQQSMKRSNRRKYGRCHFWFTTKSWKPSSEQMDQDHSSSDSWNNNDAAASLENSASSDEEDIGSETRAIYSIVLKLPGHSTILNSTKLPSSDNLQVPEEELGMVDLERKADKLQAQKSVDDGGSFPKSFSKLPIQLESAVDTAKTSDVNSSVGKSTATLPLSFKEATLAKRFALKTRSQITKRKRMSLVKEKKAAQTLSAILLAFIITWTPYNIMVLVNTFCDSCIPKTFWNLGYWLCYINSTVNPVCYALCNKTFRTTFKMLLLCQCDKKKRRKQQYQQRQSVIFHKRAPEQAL

A further data set addresses Cytochrome P450 2D6 (Homo sapiens, UniProt P10635). Kind of data set: Inhibition of recombinant human CYP2D6 expressed in baculosomes preincubated for 10 mins followed by cofactor addition measured every minute for 10 mins using 4-methylaminomethyl-7-methoxycoumarin as substrate by CYPEX assay.
For a further data set, the target named is Cytochrome P450 2C9 (Homo sapiens, UniProt P11712). In words: Inhibition of recombinant human CYP2C9 expressed in baculosomes preincubated for 10 mins followed by cofactor addition measured every minute for 10 mins using 7-methoxy-4-trifluoromethylcoumarin-3-acetic acid as substrate by CYPEX assay.
Cytochrome P450 2C9, sequence (P11712 whole entry): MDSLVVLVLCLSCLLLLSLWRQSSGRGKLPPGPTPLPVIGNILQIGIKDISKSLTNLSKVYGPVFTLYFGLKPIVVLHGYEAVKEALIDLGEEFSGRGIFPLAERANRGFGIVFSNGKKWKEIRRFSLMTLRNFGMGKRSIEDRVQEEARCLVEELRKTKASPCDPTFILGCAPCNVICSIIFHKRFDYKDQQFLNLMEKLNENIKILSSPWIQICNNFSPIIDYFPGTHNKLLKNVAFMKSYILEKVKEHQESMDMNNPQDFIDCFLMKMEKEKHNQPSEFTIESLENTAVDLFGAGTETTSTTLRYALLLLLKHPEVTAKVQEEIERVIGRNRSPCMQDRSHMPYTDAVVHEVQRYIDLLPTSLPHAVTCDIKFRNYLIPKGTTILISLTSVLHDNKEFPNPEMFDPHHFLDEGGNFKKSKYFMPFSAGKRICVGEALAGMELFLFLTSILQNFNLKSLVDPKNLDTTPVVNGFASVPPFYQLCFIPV
For a further data set, the target named is T3, Cytochrome P450 1A2 (Homo sapiens, UniProt P05177).
T3 sequence (P05177 whole entry): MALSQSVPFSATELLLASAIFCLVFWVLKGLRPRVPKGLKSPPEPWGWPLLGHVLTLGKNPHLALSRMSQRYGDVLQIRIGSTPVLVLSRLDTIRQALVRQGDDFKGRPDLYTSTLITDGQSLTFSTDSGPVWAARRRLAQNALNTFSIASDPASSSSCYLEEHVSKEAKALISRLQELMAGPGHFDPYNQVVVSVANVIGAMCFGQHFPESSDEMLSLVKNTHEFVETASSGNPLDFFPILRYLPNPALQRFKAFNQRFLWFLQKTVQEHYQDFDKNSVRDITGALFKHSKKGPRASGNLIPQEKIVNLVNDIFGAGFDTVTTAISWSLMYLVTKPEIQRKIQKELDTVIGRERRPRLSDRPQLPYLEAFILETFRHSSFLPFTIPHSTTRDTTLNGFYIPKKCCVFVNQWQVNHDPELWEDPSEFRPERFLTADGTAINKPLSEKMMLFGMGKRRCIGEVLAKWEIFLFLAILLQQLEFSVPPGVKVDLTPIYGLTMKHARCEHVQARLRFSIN
In words: Inhibition of recombinant human CYP1A2 expressed in baculosomes preincubated for 10 mins followed by cofactor addition measured every minute for 10 mins using ethoxyresorufin as substrate by CYPEX assay.

The target in data set [10] is T1, Cytochrome P450 3A4. Kind of data set: Inhibition of recombinant human CYP3A4 expressed in baculosomes preincubated for 10 mins followed by cofactor addition measured every minute for 10 mins using 7-benzyloxyquinoline as substrate by CYPEX assay.

As a reminder, the Ki is the equilibrium dissociation constant of an inhibitor or competing ligand from its target. As a reminder, the IC50 is the concentration that inhibits the measured activity by half. One may read the microsomal CLint as the capacity of the preparation to metabolise the compound, expressed as a volume cleared per time. High values mean faster metabolism, low ones greater metabolic stability. In general, solubility refers to the concentration that dissolves in the medium under given conditions. Low values mean little dissolved substance, high ones much dissolved substance.

D(2) dopamine receptor, sequence (P14416 whole entry): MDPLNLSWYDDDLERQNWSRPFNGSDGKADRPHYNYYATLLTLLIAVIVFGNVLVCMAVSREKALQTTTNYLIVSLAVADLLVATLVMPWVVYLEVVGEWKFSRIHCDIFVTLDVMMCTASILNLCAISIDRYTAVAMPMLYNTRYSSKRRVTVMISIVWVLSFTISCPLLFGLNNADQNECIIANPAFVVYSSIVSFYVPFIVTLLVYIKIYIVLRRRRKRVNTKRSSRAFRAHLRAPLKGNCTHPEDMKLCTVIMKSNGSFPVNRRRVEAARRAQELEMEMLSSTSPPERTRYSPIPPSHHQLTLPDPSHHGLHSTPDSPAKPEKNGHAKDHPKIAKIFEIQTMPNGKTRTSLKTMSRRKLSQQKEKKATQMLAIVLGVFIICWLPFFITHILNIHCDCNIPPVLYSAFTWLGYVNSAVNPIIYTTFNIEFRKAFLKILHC
T1 sequence (P08684 whole entry): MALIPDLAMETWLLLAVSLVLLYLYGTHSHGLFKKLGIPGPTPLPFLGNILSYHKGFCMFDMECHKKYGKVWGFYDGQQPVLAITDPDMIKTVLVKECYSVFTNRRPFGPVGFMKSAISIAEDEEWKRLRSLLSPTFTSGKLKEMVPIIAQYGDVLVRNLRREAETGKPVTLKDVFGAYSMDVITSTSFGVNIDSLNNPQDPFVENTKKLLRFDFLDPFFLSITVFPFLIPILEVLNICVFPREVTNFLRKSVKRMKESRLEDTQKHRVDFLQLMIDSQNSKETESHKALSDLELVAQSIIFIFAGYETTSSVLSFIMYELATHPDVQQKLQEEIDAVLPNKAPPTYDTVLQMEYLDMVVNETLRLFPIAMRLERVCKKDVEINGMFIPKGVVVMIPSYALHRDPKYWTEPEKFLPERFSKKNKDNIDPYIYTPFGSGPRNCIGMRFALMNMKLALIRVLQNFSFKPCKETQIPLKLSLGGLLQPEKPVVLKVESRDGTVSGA
Cytochrome P450 2D6, sequence (P10635 whole entry): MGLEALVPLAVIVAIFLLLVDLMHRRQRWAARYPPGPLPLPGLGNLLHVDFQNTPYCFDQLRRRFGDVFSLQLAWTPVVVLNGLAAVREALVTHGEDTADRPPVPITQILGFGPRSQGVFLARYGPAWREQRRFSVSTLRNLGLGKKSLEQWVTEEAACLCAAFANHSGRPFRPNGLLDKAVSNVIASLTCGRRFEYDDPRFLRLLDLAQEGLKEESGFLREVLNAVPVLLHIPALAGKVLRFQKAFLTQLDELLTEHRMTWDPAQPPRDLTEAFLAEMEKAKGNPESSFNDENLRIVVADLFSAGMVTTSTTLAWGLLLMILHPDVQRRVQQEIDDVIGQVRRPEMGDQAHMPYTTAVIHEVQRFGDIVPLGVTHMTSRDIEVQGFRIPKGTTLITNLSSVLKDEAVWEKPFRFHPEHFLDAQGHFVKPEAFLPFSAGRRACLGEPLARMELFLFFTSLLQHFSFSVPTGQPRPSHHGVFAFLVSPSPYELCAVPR

In the case of `Cn1c(SCCCN2CC3CCN(c4ccc(C(F)(F)F)cc4)C3C2)nnc1-c1cc[nH]c(=O)c1` (stereo in doubt; 55b), the Selectivity ratio in the data set listed under Homo sapiens was over 250. In addition, the outcome in [1] was inactive.

Take `Cc1ncoc1-c1nnc(SCCCN2CC3CCN(c4cccc(C#N)c4)C3C2)n1C` (stereo in doubt; 12b): the Ki was 631 nM on D(2) dopamine receptor and 6.31 nM at D(3) dopamine receptor. Moreover, half-maximal inhibition in [2] (IC50) was put at 794 nM.

With `Cc1ncoc1-c1nnc(SCCCN2CC3CCN(c4ccc(C(F)(F)F)cc4F)C3C2)n1C` (racemic), the Ki at D(2) dopamine receptor was 100 nM; at D(3) dopamine receptor, 2 nM. The compound also gave an IC50 in data set [2] of 15800 nM.

Turning to `Cc1ncoc1-c1nnc(SCCCN2CC3CCN(c4cccc(F)c4)C3C2)n1C` (racemic), the Selectivity ratio in the data set listed under Homo sapiens is 100. Also, the Ki is 158 nM at D(2) dopamine receptor and 3.16 nM on D(3) dopamine receptor. Also, it took 251 nM to reach half-maximal inhibition in data set [2] (IC50).

Turning to `Cc1ncoc1-c1nnc(SCCCN2CC3CCN(c4ccc(Cl)cc4Cl)C3C2)n1C` (racemic), the Ki is 501 nM on D(2) dopamine receptor and 5.01 nM at D(3) dopamine receptor. Also, it took 1260 nM to reach half-maximal inhibition in data set [2] (IC50).

Turning to `Cn1c(SCCCN2CC3CCN(c4ccc(C(F)(F)F)cc4)C3C2)nnc1-c1ccc(=O)n(C)c1` (stereo in doubt; 57a), the microsomal CLint at 0.5 µM in the data set “in vitro [3]” worked out at 23 µL/min/mg; in “in vitro [4]”, 152 µL/min/mg. In data set [5], this compound came in with a permeability of 3.9 ×10⁻⁶ cm/s.

With `Cc1ncoc1-c1nnc(SCCCN2CC3CCN(c4cccc(C#N)c4)C3C2)n1C` (stereo in doubt; 12a), in data set [6], the solubility was over 2200 µg/mL. Also, the Ki is 31.6 nM at D(2) dopamine receptor and 0.631 nM on D(3) dopamine receptor. In addition, the IC50 in data set [2] was under 100 nM.

Turning to `Cn1c(SCCCN2CC3CCN(c4ccc(C(F)(F)F)cc4)C3C2)nnc1-c1cc[nH]c(=O)c1` (racemic), the Ki at D(2) dopamine receptor is 631 nM; on D(3) dopamine receptor, 7.94 nM. Also, in data set [2], half-maximal inhibition (IC50) required 1260 nM.

As to `Cn1c(SCCCN2CC3CCN(c4ccccc4C(F)(F)F)C3C2)nnc1-c1cccnc1` (stereo in doubt; 52a), the microsomal CLint at 0.5 µM in “in vitro [3]” and in “in vitro [4]” was over 750 µL/min/mg throughout. For the same compound, the IC50 is over 3000 nM on Cytochrome P450 2C19; over 3000 nM at Cytochrome P450 3A4 [7]; over 3000 nM at Cytochrome P450 2D6; over 3000 nM on Cytochrome P450 2C9; over 3000 nM at Cytochrome P450 1A2; 920 nM on Cytochrome P450 3A4 [10]. In addition, the Ki on D(2) dopamine receptor was 398 nM; in data set [8], 631 nM; in data set [9] it was 2190 nM.

On to `Cc1ncoc1-c1nnc(SCCCN2CC3CCN(c4cc(Cl)cc(Cl)c4)C3C2)n1C` (racemic), for which the Ki on D(2) dopamine receptor is 10 nM; on D(3) dopamine receptor, 0.398 nM. This compound had an IC50 in data set [2] of under 100 nM.
